US11891366B1, “4-methoxy-n′-(2-(5-phenyl-1,3,4-oxadiazol-2-ylthio)acetoxy)benzimidamide as an antimicrobial compound” (KING FAISAL UNIVERSITY, priority 2023, dated 2024)

How the values were obtained:
Assay type in all cases: cell-based
[1] = tested on: Bacillus Cereus; assay: Agar plate disc-diffusion, antibacterial activity (inhibition zone); conditions: nutrient agar, 37° C., 48 hours
Protocol: (§1) The agar plate disc-diffusion method was applied. Sterilized filter papers (6 mm in diameter) were wetted with 10 μL of a solution 4-methoxy-N′-(2-(5-phenyl-1,3,4-oxadiazol-2-ylthio)acetoxy)benzimidamide (3) to be tested, containing 10 mg/mL in DMSO, and the discs were allowed to air dry. The discs were then placed onto the surface of agar plates (nutrient agar for bacteria and Sabouraud's dextrose agar for fungi) seeded with the test organism. Each plate contained 15 mL of the agar medium, previously seeded with 0.2 mL of the broth culture of each organism pregrown for 18 hours. The plates were incubated at 37° C. for 48 hours, and 72 hours for fungi. The inhibition zones were measured in millimeters (mm). Discs impregnated with DMSO were used as a control, and its inhibition zone was subtracted from the tested compound actual inhibition zone.

[2] = tested on: Staphylococcus aureus; assay: as above; conditions: nutrient agar, 37° C., 48 hours
Protocol: as §1, with “Sterilized filter papers (6 mm in diameter) were wetted with 10 μL of a solution 4-methoxy-N′-(2-(5-phenyl-1,3,4-oxadiazol-2-ylthio)acetoxy)benzimidamide (3) to be tested, containing 10 mg/mL in DMSO, and the discs were allowed to air dry.” left out

[3] = tested on: Escherichia coli; assay: as above; conditions: nutrient agar, 37° C., 48 hours
Protocol: as §1, with “Sterilized filter papers (6 mm in diameter) were wetted with 10 μL of a solution 4-methoxy-N′-(2-(5-phenyl-1,3,4-oxadiazol-2-ylthio)acetoxy)benzimidamide (3) to be tested, containing 10 mg/mL in DMSO, and the discs were allowed to air dry.” left out

[4] = tested on: Pseudomonas aeruginosa; assay: as above; conditions: nutrient agar, 37° C., 48 hours
Protocol: as §1, with “Sterilized filter papers (6 mm in diameter) were wetted with 10 μL of a solution 4-methoxy-N′-(2-(5-phenyl-1,3,4-oxadiazol-2-ylthio)acetoxy)benzimidamide (3) to be tested, containing 10 mg/mL in DMSO, and the discs were allowed to air dry.” left out

[5] = tested on: Aspergillus flavus; assay: Agar plate disc-diffusion, antifungal activity (inhibition zone); conditions: Sabouraud's dextrose agar, 37° C., 72 hours
Protocol: as §1, with “Sterilized filter papers (6 mm in diameter) were wetted with 10 μL of a solution 4-methoxy-N′-(2-(5-phenyl-1,3,4-oxadiazol-2-ylthio)acetoxy)benzimidamide (3) to be tested, containing 10 mg/mL in DMSO, and the discs were allowed to air dry.” left out

[6] = tested on: Chrysosporium keratinophilum; assay: as above; conditions: Sabouraud's dextrose agar, 37° C., 72 hours
Protocol: as §1, with “Sterilized filter papers (6 mm in diameter) were wetted with 10 μL of a solution 4-methoxy-N′-(2-(5-phenyl-1,3,4-oxadiazol-2-ylthio)acetoxy)benzimidamide (3) to be tested, containing 10 mg/mL in DMSO, and the discs were allowed to air dry.” left out

[7] = A = concentration of comp. = 10,000 μL
[8] = B = concentration of comp. = 30,000 μL
[9] = C = concentration of comp. = 50,000 μL

Row | SMILES | inhibition zone [1, 7] | inhibition zone [1, 8] | inhibition zone [1, 9] | inhibition zone [2, 7] | inhibition zone [2, 8] | inhibition zone [2, 9] | inhibition zone [3, 7] | inhibition zone [3, 8] | inhibition zone [3, 9] | inhibition zone [4, 7] | inhibition zone [4, 8] | inhibition zone [4, 9] | inhibition zone [5, 7] | inhibition zone [5, 8] | inhibition zone [5, 9] | inhibition zone [6, 7] | inhibition zone [6, 8] | inhibition zone [6, 9]
1 | O=C(O)c1cn(C2CC2)c2cc(N3CCNCC3)c(F)cc2c1=O [Cip., ciprofloxacin] | 29 mm | 30 mm | 42 mm | 43 mm | 44 mm | 53 mm | 30 mm | 39 mm | 60 mm | 29 mm | 30 mm | 53 mm | 29 mm | 30 mm | 42 mm | 29 mm | 30 mm | 53 mm
2 | COc1ccc(/C(N)=N/OC(=O)CSc2nnc(-c3ccccc3)o2)cc1 [Compound 3, 4-methoxy-N′-(2-(5-phenyl-1,3,4-oxadiazol-2-ylthio)acetoxy)benzimidamide] | 27 mm | 29 mm | 41 mm | 22 mm | 30 mm | 45 mm | 26 mm | 34 mm | 49 mm | 23 mm | 28 mm | 41 mm | 21 mm | 25 mm | 38 mm | 26 mm | 28 mm | 41 mm
